Experiments:
PfUGT50 = assay: UDP-glucuronosyltransferase activity assay (HPLC) with recombinant PfUGT50; assay type: biochemical, Perilla frutescens; details: 100 μM glycosyl acceptor substrate, 2 mM UDP-glucuronic acid, pH 7.5, 30° C., 30 minutes
Method: (§1) Escherichia coli BL21 (DE3) was transformed with each plasmid obtained in 4-(1) above. The transformant obtained was shake cultured overnight at 37° C. in 4 ml of LB medium (10 g/l tryptone, 5 g/l yeast extract, 1 g/l NaCl) supplemented with 50 μg/ml of ampicillin. The culture broth, 4 ml, which reached the stationary phase, was inoculated into 80 ml of the medium with the same composition, followed by shake culture at 37° C. When the cell turbidity (OD600) reached approximately 0.5, 0.4 mM IPTG (isopropyl-β-thiogalactopyranoside) in a final concentration was added to the medium, followed by shake culture at 22° C. for 20 hours. All of the subsequent procedures were performed at 4° C. The transformants cultured were centrifuged (7,000×g, 15 mins.) to collect the cells, and 2 ml/g cell of Buffer S (20 mM sodium phosphate buffer (pH 7.4), 20 mM imidazole, 0.5 M NaCl, 14 mM β-mercaptoethanol) was added to the cells for suspension. Subsequently, ultrasonication was performed (15 secs.×8) followed by centrifugation (15,000×g, 10 mins.). To the supernatant obtained, 0.12% (w/v) polyethyleneimine in a final concentration was added to […], which was then allowed to stand for 30 minutes. The mixture was centrifuged (15,000×g, 10 mins.) and the supernatant was recovered as a crude enzyme solution. The crude enzyme solution was applied to His SpinTrap (GE Healthcare), which had been equilibrated with Buffer S, and centrifuged (70×g, 30 secs.). After washing with 600 μl of Buffer S, the protein bound to the column was stepwise eluted with 600 μl each of Buffer S containing 100, 200 and 500 mM imidazole. The buffer in each fraction eluted was replaced by 20 mM potassium phosphate buffer (pH 7.5) containing 14 mM β-mercaptoethanol, using Microcon YM-30 (Amicon). […] These fractions were mixed and used for analysis.
(§2) Standard reaction conditions are as follows. A reaction solution (2 mM UDP-glucuronic acid, 100 μM glycosyl acceptor substrate, 50 mM potassium phosphate buffer (pH 7.5), enzyme solution), 50 μl, was prepared and the enzyme solution was added to initiate the reaction at 30° C. for 30 minutes. The reaction was stopped by adding 50 μl of 0.5% TFA in CH3CN and provided for HPLC analysis. The conditions for HPLC are as follows: column, Develosil C30-UG-5 (4.6×150 mm); eluant A, 0.1% TFA/H2O; eluant B, 0.08% TFA/90% CH3CN; conditions A for elution (except for aurone, catechin, coumarine and phenylpropanoid), 0 min/5% B→18 min/100% eluant B'18.1 min/5% B→25 min/5% B; conditions B for elution (aurone, catechin, coumarine and phenylpropanoid), 0 min/5% B→20 min/50% eluant B→20.5 min/5% B→25 min/5% B; flow rate, 1 ml/min; detection wavelength: 280 and 350 nm.

S1UGT = assay: UDP-glucuronosyltransferase activity assay (HPLC) with recombinant S1UGT; assay type: biochemical, Scutellaria laeteviolacea v. yakusimensis; details: 100 μM glycosyl acceptor substrate, 2 mM UDP-glucuronic acid, pH 7.5, 30° C., 30 minutes
Method: as §1, §2

AmUGTcg10 = assay: UDP-glucuronosyltransferase activity assay (HPLC) with recombinant AmUGTcg10; assay type: biochemical, Antirrhinum majus; details: 100 μM glycosyl acceptor substrate, 2 mM UDP-glucuronic acid, pH 7.5, 30° C., 30 minutes
Method: as §1, §2

SiUGT23 = assay: UDP-glucuronosyltransferase activity assay (HPLC) with recombinant SiUGT23; assay type: biochemical, Sesamum indicum; details: 100 μM glycosyl acceptor substrate, 2 mM UDP-glucuronic acid, pH 7.5, 30° C., 30 minutes
Method: as §2
cDNA containing full-length ORF of SiUGT23 derived from Sesamum indicum was amplified by a gene-specific primer set (SEQ ID NOs: 24 and 25). cDNA synthesized using total RNA extracted from sesame seeds was used as a template. SiUGT23 was incorporated into Escherichia coli expression vector as in UGT of Perilla frutescens, Scutellaria laeteviolacea v. yakusimensis and Antirrhinum majus in EXAMPLE 1 and recombinant SiUGT23 protein was expressed in the same way to assay the enzyme activity.

Sb7GAT = details: enzyme purified from Scutellaria baicalensis; Nagashima et al. 2000; cited from earlier work
[1] = Analysis of pH and temperature characteristics of the recombinant enzymes; assay type: biochemical; details: for reaction optimum temperature: activity assay for 30 minutes, reaction temperature 10 to 55° C.; for activity in an acidic region: reaction pH dependency
Method: Temperature stability was analyzed as follows. An enzyme solution was treated at 15 to 55° C. for an hour and then cooled to 4° C. Using the sample cooled, the residual activity was determined under standard reaction conditions. After 167 mM final concentration of a buffer solution (pH 4, 4.5, 5, Acetate-NaOH; pH 5.5, 6, 6.5, 7, 7.5, NaH2PO4-NaOH; pH 8, 8.5, 9, Tris-HCl) was added to the enzyme solution, the mixture was treated at 4° C. for an hour and then 500 mM final concentration of potassium phosphate buffer (pH 7.5) was added thereto. Using the sample treated, the residual activity was determined under standard reaction conditions. The reaction was performed under standard reaction conditions where the reaction temperature was set at 10 to 55° C. to analyze the reaction temperature dependency. Reaction pH dependency was analyzed under standard reaction conditions using a buffer solution (pH 4, 4.5, 5, Acetate-NaOH; pH 5.5, 6, 6.5, 7, 7.5, NaH2PO4—NaOH; pH 8, 8.5, 9, Tris-HCl) in place of potassium phosphate buffer (pH 7.5). […] PfUGT50 was stable at 30° C. or lower (an hour, pH 7.5) and the reaction optimum temperature was 30° C. in the activity assay for 30 minutes. […] This enzyme was stable at 40° C. or lower (an hour, pH 7.5) and the reaction optimum temperature was 35° C. in the activity assay for 30 minutes. […] This enzyme was stable at 30° C. or lower (an hour, pH 7.5) and the reaction optimum temperature was 45° C. in the activity assay for 30 minutes. These properties were similar to known GT involved in plant secondary metabolism.

Molecule | relative activity to each substrate, taking the activity to scutellarein as 100% (PfUGT50) [%] | relative activity to each substrate, taking the activity to scutellarein as 100% (S1UGT) [%] | relative activity to each substrate, taking the activity to scutellarein as 100% (AmUGTcg10) [%] | relative activity to each substrate, taking the activity to scutellarein as 100% (SiUGT23) [%] | action of Sb7GAT on the substrate (Sb7GAT) | reaction optimum temperature [1] [°C] | activity in an acidic region [1] | temperature at which the enzyme was stable (residual activity) ([1]; an hour, pH 7.5, treated at 15 to 55° C.) [°C]
O=c1cc(-c2ccc(O)cc2)oc2cc(O)cc(O)c12 [apigenin] | 44 | 3 | 40 | 7 | does not act | – | – | –
O=c1cc(-c2ccc(O)c(O)c2)oc2cc(O)cc(O)c12 [luteolin] | 41 | 0.6 | 34 | 29 | does not act | – | – | –
O=c1cc(-c2ccccc2)oc2cc(O)c(O)c(O)c12 [baicalein] | 73 | 63 | 22 | 24 | acts | – | – | –
O=c1c(O)c(-c2ccc(O)c(O)c2)oc2cc(O)cc(O)c12 [quercetin] | 26 | 1 | 4 | 4 | not | – | – | –
PfUGT50: UDP-glucuronosyltransferase having the amino acid sequence of SEQ ID NO: 5, derived from Perilla frutescens a red-leaf variety (protein, listed as Perilla frutescens) MEGVILLYSSAEHLNSMLLLATFIAKHHPSIPITILSSADYSAAASVSTLPSITYRRLPPVAIPPDSIKNPVEAFFEIPRLQNPNLRVALEEISQKTRIRAFVIDFFCNSAFEVSTSLSIPTYFYVSTGSAGVCIFLYFPTTDETVATDIGDLRDFLEFPGSPIIHSSDLPQLTFFRRSNVFKHMLDTSKNMQKSSGILTNGFDAMEFRAKEALTNGLCVPNGPTPPVYLVGPLVAGSNAKKDHECLLWLDRQPSKSVVFLCFGRRGLFSGKQLREMAVALERSGYRFLWSVRNPPENRSPAEDPDLDELLPEGFLERTKDIGFVVKSWAPQKEVLSHDAVAGFVTHCGRSSILEALVNGKPMIGWPMYAEQRMNKVFMVDEMKVALPLEEEEDGFVTAVELEKRLRQLMESKTGRDVRHRVAEMKAAATAAMGENGSAVVALRKFIDSVTRD | – | – | – | – | – | 30 | little activity | –
S1UGT: UDP-glucuronosyltransferase having the amino acid sequence of SEQ ID NO: 11, derived from Scutellaria laeteviolacea v. yakusimensis (protein, listed as Scutellaria sp.) MEDTIVIYTTPEHLNTMAVLAKFISKHHPSVPIILISTAAESAAASIAAVPSITYHRLPLPEIPPSLTKDRVELFFELPRLSNPNLRLALQEISQKARIRAFVIDFFCNAAFEVSTSLSIPTFYYFSSGSPTATLVLHFQTLDETIPGDLKDLDDFVEIPGLPPIYSLDIPVALLTRQSLVYQSSVDISKNLRKSAGFLVNGFDALEFRAKEAIVNGLCVPNGPTPPVYFIGPLVGDVDAKAGGEEHECLRWLDTQPSKSVIFLCFGRRGVFSAEQLKETAVALENSGHRFLWSVRNPPEIMKNSDEPDLDELLPEGFLERTKDRGFVIKSWAPQKEVLSHDSVGGFVTHCGRSSISEGVWFGVPMIGWPVDAEQKLNRTVLVEEMQVALPMEEAEGGFVTAAELEKRVRELMESKVGKAVRQRVGELKCSARAAVTGNGSSLSDFKKFLLATRD | – | – | – | – | – | 35 | little activity | ≤ 40
AmUGTcg10: UDP-glucuronosyltransferase having the amino acid sequence of SEQ ID NO: 13, derived from Antirrhinum majus (protein, listed as Antirrhinum majus) MEDTIVLYASAEHLNSMLLLGKLINKHHPTISVAIISTAPNAAASSVADVAAISYQQLKPATLPSDLTKNPIELFFEIPRLHNPNLLEALEELSLKSKVRAFVIDFFCNPAFEVSTSLNIPTYFYVSSGAFGLCGFLHFPTIDETVEKDIGELNDILEIPGCPPVLSSDFPKGMFFRKSNTYKHFLDTAKNMRRAKGIVVNAFDAMEFRAKEALVNNLCVPNSPTPPVFLVGPLVGASTTTKTTNEQHECLKWLDVQPDRSVIFLCFGRRGLFSADQLKEIAIGLENSGHRFLWSVRCPPSKPNSYNTDPDLDELLPEGFLSRTETRGFVIKSWAPQKEVLSHGAVGGFVTHCGRSSILEAVSFGVPMIGWPIYAEQRMNRVFMVEEMKVALQLDEVEEGFVAAVELEKRVKELMDSKNGRAVRQRVKEMKVAAEVAVEKGGSSVVALQRFVDMVVS | – | – | – | – | – | 45 | little activity | –

Reference: patent US8628938B2, “Polynucleotide encoding UDP-glucuronyl transferase” (Suntory Holdings Limited, priority 2007, dated 2014)
